Measured values from patent publication US6514967B1 (priority 1997, dated 2003).

Columns and labels:
astrocytes = test: Recapture of glutamate by cultures of astrocytes, radicals generated by xanthine/xanthine oxidase (X/XO); type: cell-based, rats
Procedure: B) Procedure with cultures of astrocytes and generation of radicals by the xanthine/xanthine oxidase (X/XO) pair
400 μl of D-lysine at 25 μg/ml (9 ml of D-lysine at 100 μg per ml of borate buffer (0.1M pH 8.4)+27 ml of water) is placed in each well of 24-well culture plates. The wells are left in the stove (5% CO2, 37° C.) over night. Each well is rinsed with 2 times 750 μl of Hanks before receiving the culture medium. 3 lateral demi cortices are taken from rats aged 1 to 2 days. (The hippocampus, the striatum and the meninges are removed). The demi cortices are placed in 2 ml of trypsin-EDTA then put in the stove for 30 min. The action of the trypsin is stopped with 10% of decomplemented foetal calf serum (200 μl). The serum and the trypsin are removed then the cells are dissociated with a pipette in 10 ml of medium (MEM 225 ml+FCS-D 25 ml+glucose 20% 7.5 ml) (MEM=minimum essential medium; FCS-D=decomplemented foetal calf serum). The culture medium is made up to 30 ml, stirred and placed at 400 μl per well. The medium is changed twice weekly for 18 days. The last replacement is effected 4 days prior to the treatment, with a medium without decomplemented foetal calf serum. (MEM 31.5 ml+glucose 20% 1.05 ml).
Treatment takes place on the 18th or 19th day.
Each well is washed with 750 μl of buffer (NaCl 124 mM, KCl 4.6 mM, CaCl2 1.2 mM, MgCl2 1.3 mM, KH2PO4 0.416 mM, NaHCO3 26.75 mM, glucose 10 mM; pH 7.4) for 10 min. The cells are incubated in the presence of xanthine (500 μM) and of the test product (from 0 to 1 mM). After 10 min, xanthine oxidase is added (50 mU/ml) and it is again left to incubate for 10 min. Release of radicals is stopped by washing 3 times with catalase (3000 U/ml). The glutamate is then recaptured in a solution of radioactive glutamate (^3H) at 40 μM (isotopic dilution 1/20000). Recapture is stopped by washing 3 times with the cold buffer. The cells are detached with soda 0.2N and the radioactivity is measured.
Firstly we checked that the inhibition of recapture observed in the presence of X/XO is indeed due to a radical process. For this we replaced the test products with two enzymes: SOD (SuperOxide Dismutase) and catalase (FIG. 1). […] The Fenton reaction converting hydrogen peroxide to OH• is thus short-circuited. […] However, as there seems to be sufficient reducing agent in the medium to promote the formation of H2O2 starting from O2^•^−, it appears likely that a substantial proportion of H2O2 gives OH• (a highly reactive radical).
FIGS. 3 to 8 are the mean of at least 4 independent tests in which the protective power of IC180, IC023, IC241, IC2-16, IC178, IC140, IC209, IC237, IC146, IC193, IC194, IC242, IC207, IC2-19, IC219, IC2-21, and IC249, as a function of the dose, was tested against a fixed concentration of radicals, and therefore of X/XO. In the case of IC180, the increase in recapture appears to be linear (up to 100% is found in some tests). […] Since IC023 alone only becomes “toxic” starting from 1 mM, the variation observed starting from 0.6 mM might reflect the existence of metabolites that are poorly tolerated by the cells. The derivative morpholine IC180 is more interesting.

[1] = Concentration in brain and plasma after systemic injection; type: in vivo, rats of the Wistar strain
Procedure: Experimental preparation: [Amer. J. Physiol., 267 (1994) R164-R170]
Under general anaesthesia, catheters made from tubes of flexible and inert polyethylene PE50 (Clay Adams) are placed in the right carotid artery of male rats of the Wistar strain weighing 250 g, and are slid under the skin to emerge at the nape at a site that is inaccessible to the animal. The injections are carried out 5 days later, to allow the animals optimum post-operative recovery. This arrangement permits easy and very quick systemic injections on the animal while it is conscious.
At the specified time after injection, the animals are killed by decapitation. The brains are removed in less than a minute without further fractionation. The meninges are quickly separated and the brains are rinsed in a large volume of physiological serum before being frozen at −30° C. The blood is collected on EDTA in tubes maintained at 0° C. After centrifugation, the plasma is separated and aliquots are preserved at −30° C.
After thawing, the brains are weighed and homogenized in the cold in 3 volumes of NaOH (0.1N), using an Ultra-Turrax pulverizer. An internal standard, at a suitable concentration, is added to each sample to allow for individual variations in extraction. The pulverizates are directly extracted three times with a total of 6 volumes of ethyl acetate, followed each time by centrifugation at high speed.
Apart from the stage of pulverizing, the plasmas are treated similarly.
The extracts are filtered through a 0.22 μm Millipore membrane and, after evaporation of the solvent under a nitrogen stream, the dry extracts are stored at −30° C.
One of the compounds of the invention (IC 180), diluted in physiological serum, is injected at a concentration equal to 20 mg.kg^−1. […] Its concentration decreases by about 50% in the brain, 1 hour after injection. […] The ratio of the concentrations between the brain and the plasma therefore increases between 30 and 60 minutes after injection.

[2] = 30 min after injection of 20 mg.kg^−1
[3] = 1 hour after injection of 20 mg.kg^−1

Q: Which results are given for c1cc2c(s1)CCCC2N1CCOCC1 (stereo not shown) [IC180, morpholine-4-tetrahydro-4,5,6,7-benzothiophene]?
A: increase in recapture of glutamate, highest found (astrocytes; fixed concentration of X/XO, dose-dependent, found in some tests): up to 100%; effect of the product alone on recapture (astrocytes; without the presence of X/XO): no effect on recapture; detection in the brain [1, 2]: detected preferentially in the brain; detection in the plasma [1, 2]: clearly identifiable in the plasma; decrease of concentration in the brain [1, 3]: about 50%; detection in the plasma [1, 3]: can only be detected very slightly; ratio of the concentrations between the brain and the plasma ([1]; between 30 and 60 minutes after injection, FIG. 10): increases
